{"source": "patent US5998624A", "about": "“Haloisoquinoline carboxamide” (Emory University, priority 1998, dated 1999)", "note": "“And” between values parts separate entries of the source, which are not always exact repeats. Equal values may be shown once."}
{"tested_on": "PK receptor sites", "experiment": "not given", "conditions": "background statement; cited from earlier work"}
{"smiles": "CCC(C)N(C)C(=O)c1cc2ccccc2c(-c2ccccc2Cl)n1", "note": "(stereo not shown) [PK11195, 1-(2-chlorophenyl)-N-methyl-N-(alkyl)-3-isoquinoline carboxamide]", "binding to PK receptor sites": "binds strongly"}
{"target": "T1, PK receptors (Rattus norvegicus, UniProt P16257)", "T1 construct": "Tissue preparations of rat kidney homogenate; from tissue; host or cells: rat kidney homogenate", "experiment": "Inhibition of [^3 H]PK11195 binding to PK receptors in rat kidney homogenate", "conditions": "[^3 H]PK11195, 60 min, room temperature, Average, N-2", "experimental": "The binding affinities of representative compounds of the invention are given in Table I. In this study, the compounds having the generic structure defined, supra, were tested for their ability to inhibit the binding of a known PK receptor antagonist [^3 H]PK11195, to PK receptors in a rat kidney homogenate preparation.\nTissue preparations of rat kidney homogenate were incubated with [^3 H]PK11195 and competitors (i.e. 9a-d & 23a-c, at 12 concentrations ranging from 10^-11 to 10^-6 […]) in an assay buffer. The assay mixture was incubated for 60 min. at room temperature with stirring and the resulting samples were rapidly filtered through Whatman GF/B glass-fiber filters pretreated with 0.2% protamine base and washed with cold buffer, pH 7.4. The filters were counted in a liquid scintillation counter at an efficiency of 65% for tritium saturation binding, Scatchard and competition experiments were analyzed with the iterative nonlinear least squares curve-fitting program. For comparison, for PK11195, X is Cl, Y and Z are H, and R is 2-butyl. Compounds having the lower Ki values were the most As effective inhibitors, and therefore bound the PK-receptor at the lowest concentrations. Compounds of the invention are also useful for radiation therapy, based on their specific affinity for glial tumor cells."}
{"smiles": "CN(CCCF)C(=O)c1cc2ccccc2c(-c2ccccc2I)n1", "note": "[H H CH2 CH2 CH2 F, 1-(2-iodophenyl)-N-methyl-N-(3-fluoropropyl)-3-isoquinolinecarboxamide]", "Ki": "0.26 nM"}
{"smiles": "CN(CCCF)C(=O)c1cc2ccccc2c(-c2ccc(I)cc2)n1", "note": "[H H I CH2 CH2 CH2 F, 1-(4-iodophenyl)-N-methyl-N-(3-fluoropropyl)-3-isoquinolinecarboxamide]", "Ki": "63.1 nM"}
{"smiles": "CCC(C)N(C)C(=O)c1cc2ccccc2c(-c2ccc(I)cc2)n1", "note": "(stereo not shown) [H H I CH3 CHCH2 CH3]", "Ki": "3.1 nM and 1.6 nM"}
{"smiles": "CN(CCCF)C(=O)c1cc2ccccc2c(-c2cccc(I)c2)n1", "note": "[H I H CH2 CH2 CH2 F, 1-(3-iodophenyl)-N-methyl-N-(3-fluoropropyl)-3-isoquinolinecarboxamide]", "Ki": "1.3 nM"}
{"smiles": "CCC(C)N(C)C(=O)c1cc2ccccc2c(-c2cccc(I)c2)n1", "note": "(stereo not shown) [H I H CH3 CHCH2 CH3]", "Ki": "2.8 nM and 1.53 nM"}
{"smiles": "CN(CCF)C(=O)c1cc2ccccc2c(-c2ccccc2I)n1", "note": "[I H H CH2 CH2 F, 1-(2-iodophenyl)-N-methyl-N-(2-fluoroethyl)-3-isoquinolinecarboxamide]", "Ki": "421 nM"}
